Results from patent US20250263395A1, “COMPOUNDS THAT MEDIATE PROTEIN DEGRADATION AND METHODS OF USE THEREOF” (Monte Rosa Therapeutics AG, priority 2022, published 2025).

Legend:
[1] = biological target: CDK2 (Homo sapiens (Human), UniProt P24941); experiment: CDK2 NanoBiT assay (HiBiT-tagged CDK2 degradation); assay type: cell-based; conditions: HEK293, HEK293 clonal line, C-terminal HiBiT tag on CDK2, LgBiT; 24 hours
Outline: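 HEK293 line with CRISPR knock-in C-terminal HiBiT-tagged CDK2 and stable LgBiT, preincubated 16 h with live-cell substrate, then compound-treated 24 h at 37° C, 5% CO2 (30 μM stock). Luminescence normalized to plate negative and positive controls; EC50 from 3-parameter logistic fit, Hill slope 1.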

[2] = biological target: CRBN-DDB1 (Homo sapiens (Human), UniProt Q96SW2); experiment: CRBN HTRF assay (Cy5-Thalidomide probe displacement); assay type: binding; conditions: CRBN-DDB1 2.5 nM, Cy5-Thalidomide 100 nM, 30 min; Ki from geometric mean IC50 by Cheng-Prusoff
Outline: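 HTRF displacement of Cy5-thalidomide probe (100 nM) from His-CRBN-DDB1 (2.5 nM) with anti-His terbium cryptate, in HEPES/NaCl/TCEP/EDTA/Tween20 buffer. 10-point 1:3 compound series, 30 min at ambient temperature; signal normalised to DMSO and lenalidomide controls, IC50 fitted and Ki derived by Cheng-Prusoff.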

CRBN-DDB1, sequence (Q96SW2 whole entry): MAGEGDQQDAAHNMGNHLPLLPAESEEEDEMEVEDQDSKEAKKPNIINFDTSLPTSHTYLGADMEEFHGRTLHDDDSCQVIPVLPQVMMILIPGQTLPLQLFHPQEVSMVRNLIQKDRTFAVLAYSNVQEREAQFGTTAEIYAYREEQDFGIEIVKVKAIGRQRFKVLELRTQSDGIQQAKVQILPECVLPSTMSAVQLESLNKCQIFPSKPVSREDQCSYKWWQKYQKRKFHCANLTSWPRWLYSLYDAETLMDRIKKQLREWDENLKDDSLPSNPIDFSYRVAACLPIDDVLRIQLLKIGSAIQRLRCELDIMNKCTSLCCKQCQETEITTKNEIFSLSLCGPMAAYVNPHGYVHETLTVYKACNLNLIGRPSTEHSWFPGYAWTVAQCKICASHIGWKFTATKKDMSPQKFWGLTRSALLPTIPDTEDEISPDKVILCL
CRBN-DDB1, sequence (Q16531 whole entry partner): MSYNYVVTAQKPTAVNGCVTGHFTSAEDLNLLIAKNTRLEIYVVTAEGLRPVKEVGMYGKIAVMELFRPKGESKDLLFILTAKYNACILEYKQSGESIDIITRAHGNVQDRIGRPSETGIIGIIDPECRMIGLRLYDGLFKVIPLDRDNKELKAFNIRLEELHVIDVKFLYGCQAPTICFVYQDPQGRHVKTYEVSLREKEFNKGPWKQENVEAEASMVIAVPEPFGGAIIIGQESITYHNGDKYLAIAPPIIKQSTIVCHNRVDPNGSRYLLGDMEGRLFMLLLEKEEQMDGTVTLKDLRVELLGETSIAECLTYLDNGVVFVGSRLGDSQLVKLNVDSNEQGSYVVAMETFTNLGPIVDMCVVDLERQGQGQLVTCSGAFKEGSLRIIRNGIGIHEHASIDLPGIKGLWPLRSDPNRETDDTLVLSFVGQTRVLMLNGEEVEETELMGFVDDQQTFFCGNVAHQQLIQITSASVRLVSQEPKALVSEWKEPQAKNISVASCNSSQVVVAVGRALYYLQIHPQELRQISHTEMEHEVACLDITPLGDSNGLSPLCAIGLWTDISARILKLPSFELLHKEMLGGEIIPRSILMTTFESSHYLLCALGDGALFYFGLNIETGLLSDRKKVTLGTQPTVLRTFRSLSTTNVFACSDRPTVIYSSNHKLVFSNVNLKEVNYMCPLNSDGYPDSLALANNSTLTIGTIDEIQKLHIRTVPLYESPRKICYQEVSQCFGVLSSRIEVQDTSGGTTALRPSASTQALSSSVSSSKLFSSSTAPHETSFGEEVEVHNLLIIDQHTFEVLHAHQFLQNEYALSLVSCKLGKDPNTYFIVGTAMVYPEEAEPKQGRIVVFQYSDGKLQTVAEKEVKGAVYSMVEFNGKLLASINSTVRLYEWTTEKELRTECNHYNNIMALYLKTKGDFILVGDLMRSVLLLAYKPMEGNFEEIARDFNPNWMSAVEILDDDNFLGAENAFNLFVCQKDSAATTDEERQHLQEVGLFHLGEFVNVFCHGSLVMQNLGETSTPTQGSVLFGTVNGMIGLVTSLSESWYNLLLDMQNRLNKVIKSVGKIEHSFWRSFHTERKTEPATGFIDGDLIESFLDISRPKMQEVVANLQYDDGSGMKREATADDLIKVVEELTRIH

Compound | Dmax [1] [%] | Ki [2] [nM]
O=C1CCC(c2c(F)cc(N3CC(Nc4nnc(-c5ccccn5)o4)C3)cc2F)C(=O)N1 (stereo not shown) [Compound 124, 3-(2,6-difluoro-4-(3-((5-(pyridin-2-yl)-1,3,4-oxadiazol-2-yl)amino)azetidin-1-yl)phenyl)piperidine-2,6-dione] | 10 to 50 | ≤ 100
CN(C(=O)C12CC(OC(=O)NC3CN(c4cc(F)c(C5CCC(=O)NC5=O)c(F)c4)C3)(C1)C2)c1ccc(OC(F)(F)F)cc1 (stereo not shown) [Compound 125, 3-(methyl(4-(trifluoromethoxy)phenyl)carbamoyl)bicyclo[1.1.1]pentan-1-yl (1-(4-(2,6-dioxopiperidin-3-yl)-3,5-difluorophenyl)azetidin-3-yl)carbamate] | 50 to 80 | ≤ 100
O=C1CCC(c2c(F)cc(N3CC(NC(=O)OC45CC(C(=O)N6CCC6)(C4)C5)C3)cc2F)C(=O)N1 (stereo not shown) [Compound 126, 3-(azetidine-1-carbonyl)bicyclo[1.1.1]pentan-1-yl (1-(4-(2,6-dioxopiperidin-3-yl)-3,5-difluorophenyl)azetidin-3-yl)carbamate] | 10 to 50 | ≤ 100
O=C1CCC(c2c(F)cc(N3CC(Nc4nnc(CCC5CC5)o4)C3)cc2F)C(=O)N1 (stereo not shown) [Compound 127, 3-(4-(3-((5-(2-cyclopropylethyl)-1,3,4-oxadiazol-2-yl)amino)azetidin-1-yl)-2,6-difluorophenyl)piperidine-2,6-dione] | 10 to 50 | ≤ 100
O=C1CCC(c2c(F)cc(N3CC(Nc4nnc(-c5cccnc5)o4)C3)cc2F)C(=O)N1 (stereo not shown) [Compound 128, 3-(2,6-difluoro-4-(3-((5-(pyridin-3-yl)-1,3,4-oxadiazol-2-yl)amino)azetidin-1-yl)phenyl)piperidine-2,6-dione] | 50 to 80 | ≤ 100
CN(C(=O)C12CC(OC(=O)NC3CN(c4cc(F)c(C5CCC(=O)NC5=O)c(F)c4)C3)(C1)C2)c1ccc(Cl)cc1 (stereo not shown) [Compound 129, 3-((4-chlorophenyl)(methyl)carbamoyl)bicyclo[1.1.1]pentan-1-yl (1-(4-(2,6-dioxopiperidin-3-yl)-3,5-difluorophenyl)azetidin-3-yl)carbamate] | 50 to 80 | ≤ 100
COc1cccc(N(C)C(=O)C23CC(OC(=O)NC4CN(c5cc(F)c(C6CCC(=O)NC6=O)c(F)c5)C4)(C2)C3)c1 (stereo not shown) [Compound 130, 3-((3-methoxyphenyl)(methyl)carbamoyl)bicyclo[1.1.1]pentan-1-yl (1-(4-(2,6-dioxopiperidin-3-yl)-3,5-difluorophenyl)azetidin-3-yl)carbamate] | 50 to 80 | ≤ 100

Second part, the molecule after the results:

Dmax [1] [%] | Ki [2] [nM] | Compound
10 to 50 | ≤ 100 | CN(C(=O)C12CC(OC(=O)NC3CN(c4cc(F)c(C5CCC(=O)NC5=O)c(F)c4)C3)(C1)C2)c1ccc(C#N)cc1 (stereo not shown) [Compound 120, 3-((4-cyanophenyl)(methyl)carbamoyl)bicyclo[1.1.1]pentan-1-yl (1-(4-(2,6-dioxopiperidin-3-yl)-3,5-difluorophenyl)azetidin-3-yl)carbamate]
10 to 50 | ≤ 100 | COc1c(N2CC(C)(Nc3nnc(C4CC5(CCC5)C4)o3)C2)ccc(C2CCC(=O)NC2=O)c1F (stereo not shown) [Compound 121, 3-(2-fluoro-3-methoxy-4-(3-methyl-3-((5-(spiro[3.3]heptan-2-yl)-1,3,4-oxadiazol-2-yl)amino)azetidin-1-yl)phenyl)piperidine-2,6-dione]
10 to 50 | ≤ 100 | CC1(CCc2nnc(NC3CN(c4cc(F)c(C5CCC(=O)NC5=O)c(F)c4)C3)o2)CC1 (stereo not shown) [Compound 122, 3-(2,6-difluoro-4-(3-((5-(2-(1-methylcyclopropyl)ethyl)-1,3,4-oxadiazol-2-yl)amino)azetidin-1-yl)phenyl)piperidine-2,6-dione]
10 to 50 | ≤ 100 | CN(C(=O)C12CC(OC(=O)NC3CN(c4cc(F)c(C5CCC(=O)NC5=O)c(F)c4)C3)(C1)C2)c1cccc(C#N)c1 (stereo not shown) [Compound 123, 3-((3-cyanophenyl)(methyl)carbamoyl)bicyclo[1.1.1]pentan-1-yl (1-(4-(2,6-dioxopiperidin-3-yl)-3,5-difluorophenyl)azetidin-3-yl)carbamate]
